One assay has as its target CbcX with CbcWV (Pseudomonas aeruginosa, UniProt Q9HTI6).
The subject of assay [1] is Cbc core transporter CbcWV (PAO1) with chromosomally encoded SBPs. Format: cell-based, Pseudomonas aeruginosa. The following applies: pNcbcWV.
Assay [2] concerns cbcXWV from DC3000 in QAC transporter-deficient BT strain. Type of assay: cell-based, Pseudomonas syringae pv. tomato. The following applies: BT(pCbcDC3000), unlabelled competitor 0.5 mM, 10 min.
Assay [3] deals with T1, BetX with CbcWV (Pseudomonas aeruginosa, UniProt Q9HZ04).
T1 sequence (Q9HZ04 26-285): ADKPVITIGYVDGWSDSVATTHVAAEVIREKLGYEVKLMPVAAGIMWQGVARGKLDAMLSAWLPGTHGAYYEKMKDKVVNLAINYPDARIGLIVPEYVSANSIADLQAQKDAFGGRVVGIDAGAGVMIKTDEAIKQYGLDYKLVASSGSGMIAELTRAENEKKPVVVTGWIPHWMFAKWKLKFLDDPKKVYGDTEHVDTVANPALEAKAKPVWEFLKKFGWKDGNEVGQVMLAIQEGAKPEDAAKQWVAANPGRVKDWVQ
T1 sequence (Q9HTI7 1-279 partner): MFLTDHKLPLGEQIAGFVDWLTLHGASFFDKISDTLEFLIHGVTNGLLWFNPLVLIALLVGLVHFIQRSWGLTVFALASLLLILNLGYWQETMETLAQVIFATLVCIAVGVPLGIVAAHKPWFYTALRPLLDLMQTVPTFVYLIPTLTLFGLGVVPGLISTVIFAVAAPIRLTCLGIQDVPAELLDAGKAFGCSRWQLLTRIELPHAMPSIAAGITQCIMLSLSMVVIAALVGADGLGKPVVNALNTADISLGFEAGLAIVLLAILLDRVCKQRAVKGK
T1 sequence (Q9HTI8 1-392 partner): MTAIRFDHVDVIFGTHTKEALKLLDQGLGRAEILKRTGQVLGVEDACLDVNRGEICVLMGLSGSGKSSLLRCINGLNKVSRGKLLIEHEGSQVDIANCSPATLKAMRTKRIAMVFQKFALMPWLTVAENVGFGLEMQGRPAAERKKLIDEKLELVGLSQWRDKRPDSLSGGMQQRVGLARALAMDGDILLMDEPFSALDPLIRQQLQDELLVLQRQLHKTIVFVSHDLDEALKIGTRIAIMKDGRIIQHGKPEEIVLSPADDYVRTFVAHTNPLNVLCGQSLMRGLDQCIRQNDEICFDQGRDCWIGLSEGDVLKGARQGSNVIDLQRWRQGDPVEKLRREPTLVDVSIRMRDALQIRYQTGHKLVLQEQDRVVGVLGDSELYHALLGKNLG
Put plainly: Competitive uptake, MKH13 expressing cbcWV and betX. Type of assay: cell-based. The following applies: pNcbcWV, pT-PA3236, SBP BetX, [^14C]betaine 10 μM, competitor 1 mM.

Another assay relates to CbcWV with CaiXB728a. Format: cell-based, Pseudomonas syringae pv. syringae. The following applies: MKH13; pNcbcWV, pT-B2916; SBP CaiXB728a; substrate 10 μM; single replication.
Assay [4] has as its system P. syringae pv. tomato DC3000. Type of assay: cell-based, Pseudomonas syringae pv. tomato. The following applies: for uptake rate: DC3000 grown without choline and betaine as inducers, substrate 10 μM.
Assay [5] concerns complete Cbc transporter CbcXWV (PAO1). Format: cell-based, Pseudomonas aeruginosa. The conditions noted are these: for Total uptake: pNcbcXWV; for choline uptake by CbcXWV: BT strain derivatives.
For assay [6], the target named is T1, BetX with CbcWV. Put plainly: Uptake kinetics, MKH13. The conditions noted are these: MKH13, pNcbcWV + pTPA3236, SBP BetX, mean (SE), n = 4.
For another assay, the target named is CbcWV-CaiX (Pseudomonas aeruginosa, UniProt Q9HTH6). In words: Uptake kinetics, PA5378::tn. The conditions noted are these: pNcbcWV, SBP CaiXPAO1, mean (SE), n = 4.
The target in another assay is T2, ChoXWV (Sinorhizobium meliloti, UniProt Q92N37).
T2 sequence (Q92N37 28-318): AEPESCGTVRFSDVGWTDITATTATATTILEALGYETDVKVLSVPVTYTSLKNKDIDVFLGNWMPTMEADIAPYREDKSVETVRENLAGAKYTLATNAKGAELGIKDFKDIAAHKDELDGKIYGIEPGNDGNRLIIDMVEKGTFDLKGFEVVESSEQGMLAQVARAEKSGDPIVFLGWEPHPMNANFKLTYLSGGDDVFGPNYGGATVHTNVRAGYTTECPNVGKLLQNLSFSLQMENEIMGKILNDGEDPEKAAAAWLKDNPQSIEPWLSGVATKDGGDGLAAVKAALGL
T2 sequence (Q92N36 1-281 partner): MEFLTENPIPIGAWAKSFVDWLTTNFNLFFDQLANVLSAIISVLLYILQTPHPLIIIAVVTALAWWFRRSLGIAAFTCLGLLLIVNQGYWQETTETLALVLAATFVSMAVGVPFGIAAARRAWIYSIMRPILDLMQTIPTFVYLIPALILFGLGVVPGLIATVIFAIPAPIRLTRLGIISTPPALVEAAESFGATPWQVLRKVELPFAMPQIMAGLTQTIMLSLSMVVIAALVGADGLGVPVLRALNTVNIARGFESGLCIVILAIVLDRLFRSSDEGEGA
T2 sequence (Q92N35 1-349 partner): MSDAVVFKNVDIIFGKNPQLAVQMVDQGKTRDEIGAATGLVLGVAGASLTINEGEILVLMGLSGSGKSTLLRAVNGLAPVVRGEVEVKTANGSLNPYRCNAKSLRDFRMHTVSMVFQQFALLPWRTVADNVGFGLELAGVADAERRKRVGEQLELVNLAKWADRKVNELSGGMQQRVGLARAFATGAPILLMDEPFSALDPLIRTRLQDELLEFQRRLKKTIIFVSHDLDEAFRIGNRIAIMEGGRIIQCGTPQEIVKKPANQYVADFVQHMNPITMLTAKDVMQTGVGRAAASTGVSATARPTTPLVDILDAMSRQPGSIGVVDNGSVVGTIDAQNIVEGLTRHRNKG
Put plainly: Uptake kinetics, MKH13. The conditions noted are these: MKH13, pNchoXWV; SBP ChoX; mean (SE), n = 4.

Setting [7] is: host BT0028Ko, substrate 10 μM, mean (SE), n = 2.
Where [8] appears, read: host BT2916Ko, substrate 10 μM, single replication.
Setting [9] is: host BT3758Ko, substrate 10 μM, mean (SE), n = 3.
The mark [10] stands for this setting: host BT0028Ko, substrate 1 mM, mean (SE), n = 2.
Where [11] appears, read: host BT2916Ko, substrate 1 mM, single replication.
[12] abbreviates: host BT3758Ko, substrate 1 mM, mean (SE), n = 3.

The results in this text go back to PMC5503199 (Molecular microbiology, 2009).

Several values for one entry are separate records, joined by “and”; a condition that tells them apart may be missing. Equal entries are not always repeated. Where two headings read alike, the source gives them in different places.

As to `C[N+](C)(C)CC(=O)O` [Betaine, glycine betaine], on CbcX with CbcWV, the “fold lower affinity of CbcX for betaine than choline” value was “approximately 10 fold”. The “maximal rate of uptake (Vmax)” value at CbcX with CbcWV (MKH13, pNcbcXWV, SBP CbcX, mean (SE), n = 4) is recorded as 11.6 (0.6) nmol min^−1 (mg protein)^−1; on CbcX with CbcWV (MKH13, pNcbcXWV, SBP CbcX, mean (SE), n = 4, listed as betaine), 11.6 nmol min^−1 (mg protein)^−1; on BetX with CbcWV [6], 4.8 (0.18) nmol min^−1 (mg protein)^−1; on BetX with CbcWV [6] (listed as betaine), 4.8 nmol min^−1 (mg protein)^−1. The Total uptake in assay [1] (setting [7]) is recorded as 17.2 (0.2) nmol (mg protein)^−1; in [1] (setting [8]), 17.2 nmol (mg protein)^−1; in assay [1] (setting [9]), 0.1 (0.01) nmol (mg protein)^−1; in the assay with CbcWV with CaiXB728a, 0 nmol (mg protein)^−1; in assay [5] (setting [7]), 16.1 (0.41) nmol (mg protein)^−1; in [5] (setting [8]), 16.0 nmol (mg protein)^−1. For the same compound, in assay [5] (setting [9]), the Total uptake is recorded as 14.3 (0.24) nmol (mg protein)^−1. Besides, the entries for the “% inhibition of uptake of [^14C]substrate” value in [2] ([^14C]betaine 5 μM), in [2] ([^14C]carnitine 5 μM) and in assay [2] ([^14C]choline 5 μM) were 89%, 88% and 12%, respectively. For the same compound, on BetX with CbcWV [3], the “% inhibition of uptake of substrate by unlabelled competitor” value (“% inhibition of uptake of substrate” for short) is listed as 94%. Also, the “increase of initial uptake rate after growth with inducer” value in assay [4] (DC3000 grown with 10 mM choline or betaine as inducers) is listed as “three- to fourfold”. The uptake rate in assay [4] is reported as 0.6 nmol min^−1 (mg protein)^−1.
Take `C[N+](C)(C)C[C@H](O)CC(=O)[O-]` [Carnitine, L-carnitine]: the Total uptake in assay [1] (setting [7]) is on record as 16.3 (0.91) nmol (mg protein)^−1; in assay [1] (setting [8]), 0.3 nmol (mg protein)^−1; in [1] (setting [9]), 15.1 (0.16) nmol (mg protein)^−1; in the assay with CbcWV with CaiXB728a, 3.7 nmol (mg protein)^−1; in assay [5] (setting [7]), 7.0 (0.4) nmol (mg protein)^−1; in assay [5] (setting [8]), 0.5 nmol (mg protein)^−1. For the same compound, the Total uptake in assay [5] (setting [9]) is 13.0 (0.3) nmol (mg protein)^−1. Besides, the “% inhibition of uptake of [^14C]substrate” value in assay [2] ([^14C]betaine 5 μM) is reported as −2%; in assay [2] ([^14C]carnitine 5 μM) it was 94%; in assay [2] ([^14C]choline 5 μM), −6%. The “% inhibition of uptake of substrate” value at BetX with CbcWV [3] is 3%. Further, on CbcWV-CaiX, the “maximal rate of uptake (Vmax)” value is recorded as 3.8 (0.33) nmol min^−1 (mg protein)^−1.
`C[N+](C)(C)CCO` [Choline, choline]: the “maximal rate of uptake (Vmax)” value at CbcX with CbcWV is 34.6 nmol min^−1 (mg protein)^−1 and 34.6 (2.2) nmol min^−1 (mg protein)^−1; at ChoXWV, 1.2 (0.05) nmol min^−1 (mg protein)^−1. Besides, the Total uptake in assay [1] (setting [7]) is 0.11 (0.05) nmol (mg protein)^−1; in [1] (setting [10]) it was 8.9 (1.4) nmol (mg protein)^−1; in assay [1] (setting [8]), 0.15 nmol (mg protein)^−1; in assay [1] (setting [11]), 8.6 nmol (mg protein)^−1; in [1] (setting [9]), 0.15 (0.05) nmol (mg protein)^−1; in assay [1] (setting [12]), 7.1 (0.6) nmol (mg protein)^−1. Moreover, the Total uptake is listed as 0 nmol (mg protein)^−1 with CbcWV with CaiXB728a; 18.2 (0.36) nmol (mg protein)^−1 in assay [5] (setting [7]); 562 (6.8) nmol (mg protein)^−1 in assay [5] (setting [10]); 16.2 nmol (mg protein)^−1 in assay [5] (setting [8]); 644 nmol (mg protein)^−1 in assay [5] (setting [11]); 16.4 (0.18) nmol (mg protein)^−1 in assay [5] (setting [9]). In addition, the Total uptake in [5] (setting [12]) is reported as 648 (27.5) nmol (mg protein)^−1. Moreover, the “% inhibition of uptake of [^14C]substrate” value is recorded as −6% in assay [2] ([^14C]betaine 5 μM), 81% in assay [2] ([^14C]carnitine 5 μM) and 89% in [2] ([^14C]choline 5 μM). In addition, the “% inhibition of uptake of substrate” value on BetX with CbcWV [3] was −8%. Besides, the “increase of initial uptake rate after growth with inducer” value in assay [4] is given as “three- to fourfold”. Besides, the uptake rate in assay [4] was 1.8 nmol min^−1 (mg protein)^−1. Further, the “choline uptake by CbcXWV” value in assay [5] (choline 10 μM (summary of Table 4)) is listed as 16 to 18 nmol (mg protein)^−1; in assay [5] (choline 1 mM (summary of Table 4)), 562–648 nmol (mg protein)^−1. Also, in assay [5] (at low (10 μM) and high (1 mM) [^14C]choline concentrations, BT derivatives), the “share of choline uptake mediated by CbcX” value is “approximately 99%”.
